Data published in ChEMBL document CHEMBL1158856, “Bioactive constituents of Morus australis and Broussonetia papyrifera” (J Nat Prod, 1997).
pIC50: −log10 of the molar value.

How the values were obtained:
[1] = Antiplatelet activity against rabbit platelet assessed as inhibition of thrombin-induced platelet aggregation at 300 uM preincubated 3 mins before thrombin challenge by turbidimetric method relative to control; format: functional, Oryctolagus cuniculus; design: scale not given: the % may be the effect or the level left
[2] = Antiplatelet activity against rabbit platelet assessed as inhibition of platelet-activating factor-induced platelet aggregation at 20 uM preincubated 3 mins before PAF challenge by turbidimetric method relative to control; format: functional, cell-based, Oryctolagus cuniculus; design: Activity: scale not given: the % may be the effect or the level left; conditions: for pIC50: Oryctolagus cuniculus, Platelet
[3] = Antiplatelet activity against rabbit platelet assessed as inhibition of arachidonic acid-induced platelet aggregation at 100 uM preincubated 3 mins before arachidonic acid challenge by turbidimetric method relative to control; format: functional, Oryctolagus cuniculus; design: scale not given: the % may be the effect or the level left
[4] = Antiplatelet activity against rabbit platelet assessed as inhibition of collagen-induced platelet aggregation at 300 uM preincubated 3 mins before collagen challenge by turbidimetric method relative to control; format: functional, Oryctolagus cuniculus; design: scale not given: the % may be the effect or the level left
[5] = Antiplatelet activity against rabbit platelet assessed as inhibition of arachidonic acid-induced platelet aggregation at 50 uM preincubated 3 mins before arachidonic acid challenge by turbidimetric method relative to control; format: functional, Oryctolagus cuniculus; design: scale not given: the % may be the effect or the level left
[6] = Antiplatelet activity against rabbit platelet assessed as inhibition of arachidonic acid-induced platelet aggregation at 20 uM preincubated 3 mins before arachidonic acid challenge by turbidimetric method relative to control; format: functional, Oryctolagus cuniculus; design: scale not given: the % may be the effect or the level left
[7] = Antiplatelet activity against rabbit platelet assessed as inhibition of arachidonic acid-induced platelet aggregation at 300 uM preincubated 3 mins before arachidonic acid challenge by turbidimetric method relative to control; format: functional, Oryctolagus cuniculus; design: scale not given: the % may be the effect or the level left
[8] = Antiplatelet activity against rabbit platelet assessed as inhibition of platelet-activating factor-induced platelet aggregation at 300 uM preincubated 3 mins before PAF challenge by turbidimetric method relative to control; format: functional, Oryctolagus cuniculus; design: scale not given: the % may be the effect or the level left
[9] = Antiplatelet activity against rabbit platelet assessed as inhibition of platelet-activating factor-induced platelet aggregation at 50 uM preincubated 3 mins before PAF challenge by turbidimetric method relative to control; format: functional, Oryctolagus cuniculus; design: scale not given: the % may be the effect or the level left
[10] = Antiplatelet activity against rabbit platelet assessed as inhibition of platelet-activating factor-induced platelet aggregation at 100 uM preincubated 3 mins before PAF challenge by turbidimetric method relative to control; format: functional, Oryctolagus cuniculus; design: scale not given: the % may be the effect or the level left
[11] = Antiproliferative activity against PDGF-stimulated rat VSMC assessed as inhibition of [3H]thymidine incorporation into DNA after 20 hrs by liquid scintillation counting relative to control; format: functional
[12] = (§1) Antiproliferative activity against FCS-stimulated rat VSMC assessed as inhibition of [3H]thymidine incorporation into DNA after 20 hrs by liquid scintillation counting relative to control; format: functional
[13] = (§2) Antiproliferative activity against ADP-stimulated rat VSMC assessed as inhibition of [3H]thymidine incorporation into DNA after 20 hrs by liquid scintillation counting relative to control; format: functional
Brain [14] = test: Antioxidant activity in Wistar rat brain homogenate assessed as inhibition of Fe2+-induced TBARS formation by lipid peroxidation assay; format: functional, tissue-based
[15] = (§3) Antiproliferative activity against 5-HT-stimulated rat VSMC assessed as inhibition of [3H]thymidine incorporation into DNA after 20 hrs by liquid scintillation counting relative to control; format: functional
[16] = Antiplatelet activity against rabbit platelet assessed as inhibition of thrombin-induced platelet aggregation at 100 uM preincubated 3 mins before thrombin challenge by turbidimetric method; format: functional, Oryctolagus cuniculus; design: scale not given: the % may be the effect or the level left
[17] = Antiplatelet activity against rabbit platelet assessed as inhibition of collagen-induced platelet aggregation at 100 uM preincubated 3 mins before collagen challenge by turbidimetric method relative to control; format: functional, Oryctolagus cuniculus; design: scale not given: the % may be the effect or the level left
[18] = Antiplatelet activity against rabbit platelet assessed as inhibition of collagen-induced platelet aggregation at 50 uM preincubated 3 mins before collagen challenge by turbidimetric method relative to control; format: functional, Oryctolagus cuniculus; design: scale not given: the % may be the effect or the level left
[19] = Antiplatelet activity against rabbit platelet assessed as inhibition of thrombin-induced platelet aggregation at 50 uM preincubated 3 mins before thrombin challenge by turbidimetric method relative to control; format: functional, Oryctolagus cuniculus; design: scale not given: the % may be the effect or the level left
Brain [20] = test: Antioxidant activity in Wistar rat brain homogenate assessed as inhibition of Fe2+-induced TBARS formation at 100 uM by lipid peroxidation assay; format: functional, tissue-based
VSMC [21] = test: as §1; format: functional
VSMC [22] = test: as §2; format: functional
VSMC [23] = test: as §3; format: functional

| SMILES | pIC50 [2] | Activity [5] | Activity [9] | inhibition (INH) [11] | inhibition (INH) [12] | inhibition (INH) [13] | Activity (Brain [14]) | inhibition (INH) [15] | further results |
| --- | --- | --- | --- | --- | --- | --- | --- | --- | --- |
| CC(C)=CCc1c(-c2ccc(O)cc2O)oc2c(CC=C(C)C)c(O)cc(O)c2c1=O [KUWANON C] |  | 60.2% | 67.6% |  |  |  |  |  | Activity [1]: 54.8%; Activity [2]: 78.8%; Activity [3]: 5.9%; Activity [4]: 5.5%; Activity [6]: 83.9%; Activity [7]: 0%; Activity [8]: 0%; Activity [10]: 26.9% |
| CC(C)=CCc1c(-c2ccc(O)cc2O)oc2c3c(cc(O)c2c1=O)OC(C)(C)C=C3 [MORUSIN] |  | 74.2% | 62.5% |  |  |  |  |  | Activity [16]: 81.8%; Activity [2]: 81.3%; Activity [3]: 0%; Activity [17]: 5.3%; Activity [6]: 82.8%; Activity [10]: 0% |
| CC(=O)Oc1ccccc1C(=O)O [ASPIRIN] |  | 0% | 90.5% |  |  |  |  |  | Activity [18]: 85.4%; Activity [19]: 91.9% |
| CC(C)=CCc1cc2c(cc1O)O/C(=C\c1ccc(O)c(O)c1)C2=O [BROUSSOAURONE A] | 5.92 |  |  |  |  |  | Dose-dependent effect |  |  |

Now from value to molecule, other results behind:

| pIC50 [2] | SMILES | Activity [5] | Activity [9] | inhibition (INH) [11] | inhibition (INH) [12] | inhibition (INH) [13] | Activity (Brain [14]) | inhibition (INH) [15] | further results |
| --- | --- | --- | --- | --- | --- | --- | --- | --- | --- |
| 5.68 | CC(C)=CCc1c([C@@H]2CCc3ccc(O)cc3O2)cc2c(c1O)OC(C)(C)C(O)C2O (stereo not given in full) [BROUSSOFLAVAN A] |  |  | 258% | 39.5% | 67% | Dose-dependent effect | 19% |  |
| 4.84 | Cc1cc(C(C)(C)C)c(O)c(C(C)(C)C)c1 [BUTYLATED HYDROXYTOLUENE] |  |  |  |  |  |  |  | inhibition (Brain [20]): 91.3% |
| 5.57 | CC(C)=CCc1cc(-c2oc3c(CC=C(C)C)c(O)cc(O)c3c(=O)c2O)ccc1O [BROUSSOFLAVONOL F] |  |  | 127% | 0% | 7.8% | Dose-dependent effect | 0% | Activity (VSMC [21]): Dose-dependent effect; Activity (VSMC [22]): Dose-dependent effect; Activity (VSMC [23]): Dose-dependent effect |
| 6.00 | CC(C)=CCc1c(-c2oc3c(CC=C(C)C)c(O)cc(O)c3c(=O)c2O)cc(O)c(O)c1CC=C(C)C [BROUSSOFLAVONOL E] |  |  | 127% | 0% | 0.4% | Dose-dependent effect | 0% | Activity (VSMC [21]): Dose-dependent effect; Activity (VSMC [22]): Dose-dependent effect; Activity (VSMC [23]): Dose-dependent effect |
